Reference: patent US20070049564A1 (Wyeth, priority 2005, published 2007)
≈ marks a conversion by molar mass, not a printed value. Read-outs that look alike come from different tables or passages of the source.

Assays:
E. coli GC 2231 = test: MIC, broth microdilution; conditions: Escherichia coli
E. coli GC 2232 = test: MIC, broth microdilution; conditions: Escherichia coli
E. coli GC 2234 = test: MIC, broth microdilution; conditions: Escherichia coli
E. coli GC 2272 = test: MIC, broth microdilution; conditions: Escherichia coli
E. coli GC 3226 = test: MIC, broth microdilution; conditions: Escherichia coli
S. typhimurium GC 2172 = test: MIC, broth microdilution; conditions: Salmonella enterica, TYPHIMURIUM
S. aureus GC 1131 = test: MIC, broth microdilution; conditions: Staphylococcus aureus
Method: Antimicrobial susceptibility testing. The in vitro activities of the antibiotics are determined by the broth microdilution method as recommended by the National Committee for Clinical Laboratory Standards (NCCLS) (1). Mueller-Hinton II broth (MHBII)(BBL Cockeysville, Md.) is the medium employed in the testing procedures. Microtiter plates containing serial dilutions of each antimicrobial agent are inoculated with each organism to yield the appropriate density (10^5 CFU/ml) in a 100 μl final volume. The plates are incubated for 18-22 hours at 35° C. in ambient air.
Representative compounds were first incubated in mouse serum for an hour prior to the in vitro testing against a panel of selected gram-positive and gram-negative bacteria strains. All compounds were also pre-incubated in water for an hour prior to testing as control.

S. aureus GC 6466 = test: MIC, broth microdilution; conditions: Staphylococcus aureus
S. aureus GC 1079 = test: MIC, broth microdilution; conditions: Staphylococcus aureus
S. aureus GC 2216 = test: MIC, broth microdilution; conditions: Staphylococcus aureus
S. aureus GC 6335 = test: MIC, broth microdilution; conditions: Staphylococcus aureus
S. epidermidis GC 4935 = test: MIC, broth microdilution; conditions: Staphylococcus epidermidis
E. faecalis GC 2267 = test: MIC, broth microdilution; conditions: Enterococcus faecalis
E. faecium GC 4556 = test: MIC, broth microdilution; conditions: Enterococcus faecium
E. faecium GC 2243 = test: MIC, broth microdilution; conditions: Enterococcus faecium
S. pneumoniae* GC 4465 = test: MIC, broth microdilution; conditions: Streptococcus pneumoniae
S. pneumoniae+ GC 4465 = test: MIC, broth microdilution; conditions: Streptococcus pneumoniae
S. pyogenes GC 4563 = test: MIC, broth microdilution; conditions: Streptococcus pyogenes
c. albicans GC 3066 = test: MIC, broth microdilution
Staph. aureus Smith = test: In vivo activity (oral, iv; ED50) against Staph. aureus Smith in mice
Method: Representative examples of compounds of Formula I were tested for the oral efficacy using S. aureus Smith in mice.

[1] = read-out: MINIMAL INHIBITORY CONCENTRATION MIC, pre-incubated in Mouse Serum
[2] = read-out: MINIMAL INHIBITORY CONCENTRATION MIC, pre-incubated in Water

SMILES: CCCCN(CC(=O)Nc1cc(N(C)C)c2c(c1O)C(=O)C1=C(O)[C@]3(O)C(=O)C(C(N)=O)=C(O)[C@@H](N(C)C)[C@@H]3C[C@@H]1C2)C(=O)OCOC(=O)c1ccc(-c2ccccc2)cc1 [Example 21, ({[(2-{[(5aR,6aS,7S,10aS)-9-(aminocarbonyl)-4,7-bis(dimethylamino)-1,8,10a,11-tetrahydroxy-10,12-dioxo-5,5a,6,6a,7,10,10a,12-octahydrotetracen-2-yl]amino}-2-oxoethyl)(butyl)amino]carbonyl}oxy)methyl 1,1′-biphenyl-4-carboxylate]
- MIC (E. coli GC 2231; GC2231, read-out: MINIMAL INHIBITORY CONCENTRATION MIC, pre-incubated in Mouse Serum): 1 mg/L (≈ 1.19 µM)
- MIC (E. coli GC 2231; GC2231, read-out: MINIMAL INHIBITORY CONCENTRATION MIC, pre-incubated in Water): > 64 mg/L
- MIC (E. coli GC 2232; GC2232, read-out: MINIMAL INHIBITORY CONCENTRATION MIC, pre-incubated in Mouse Serum): 1 mg/L (≈ 1.19 µM)
- MIC (E. coli GC 2232; GC2232, read-out: MINIMAL INHIBITORY CONCENTRATION MIC, pre-incubated in Water): > 64 mg/L
- MIC (E. coli GC 2234; GC2234, read-out: MINIMAL INHIBITORY CONCENTRATION MIC, pre-incubated in Mouse Serum): 0.5 mg/L (≈ 0.595 µM)
- MIC (E. coli GC 2234; GC2234, read-out: MINIMAL INHIBITORY CONCENTRATION MIC, pre-incubated in Water): > 64 mg/L
- MIC (E. coli GC 2272; GC2272, read-out: MINIMAL INHIBITORY CONCENTRATION MIC, pre-incubated in Mouse Serum): 1 mg/L (≈ 1.19 µM)
- MIC (E. coli GC 2272; GC2272, read-out: MINIMAL INHIBITORY CONCENTRATION MIC, pre-incubated in Water): > 64 mg/L
- MIC (E. coli GC 3226; GC3226, read-out: MINIMAL INHIBITORY CONCENTRATION MIC, pre-incubated in Mouse Serum): 8 mg/L (≈ 9.52 µM)
- MIC (E. coli GC 3226; GC3226, read-out: MINIMAL INHIBITORY CONCENTRATION MIC, pre-incubated in Water): > 64 mg/L
- MIC (S. typhimurium GC 2172; [1]): 4 mg/L (≈ 4.76 µM)
- MIC (S. typhimurium GC 2172; [2]): > 64 mg/L
- MIC (S. aureus GC 1131; GC1131, read-out: MINIMAL INHIBITORY CONCENTRATION MIC, pre-incubated in Mouse Serum): 1 mg/L (≈ 1.19 µM)
- MIC (S. aureus GC 1131; GC1131, read-out: MINIMAL INHIBITORY CONCENTRATION MIC, pre-incubated in Water): 64 mg/L (≈ 76.2 µM)
- MIC (S. aureus GC 6466; GC6466, read-out: MINIMAL INHIBITORY CONCENTRATION MIC, pre-incubated in Mouse Serum): 1 mg/L (≈ 1.19 µM)
- MIC (S. aureus GC 6466; GC6466, read-out: MINIMAL INHIBITORY CONCENTRATION MIC, pre-incubated in Water): 64 mg/L (≈ 76.2 µM)
- MIC (S. aureus GC 1079; GC1079, read-out: MINIMAL INHIBITORY CONCENTRATION MIC, pre-incubated in Mouse Serum): 4 mg/L (≈ 4.76 µM)
- MIC (S. aureus GC 1079; GC1079, read-out: MINIMAL INHIBITORY CONCENTRATION MIC, pre-incubated in Water): > 64 mg/L
- MIC (S. aureus GC 2216; GC2216, read-out: MINIMAL INHIBITORY CONCENTRATION MIC, pre-incubated in Mouse Serum): 1 mg/L (≈ 1.19 µM)
- MIC (S. aureus GC 2216; GC2216, read-out: MINIMAL INHIBITORY CONCENTRATION MIC, pre-incubated in Water): 64 mg/L (≈ 76.2 µM)
- MIC (S. aureus GC 6335; GC6335, read-out: MINIMAL INHIBITORY CONCENTRATION MIC, pre-incubated in Mouse Serum): 2 mg/L (≈ 2.38 µM)
- MIC (S. aureus GC 6335; GC6335, read-out: MINIMAL INHIBITORY CONCENTRATION MIC, pre-incubated in Water): 64 mg/L (≈ 76.2 µM)
- MIC (S. epidermidis GC 4935; GC4935, read-out: MINIMAL INHIBITORY CONCENTRATION MIC, pre-incubated in Mouse Serum): 2 mg/L (≈ 2.38 µM)
- MIC (S. epidermidis GC 4935; GC4935, read-out: MINIMAL INHIBITORY CONCENTRATION MIC, pre-incubated in Water): 64 mg/L (≈ 76.2 µM)
- MIC (E. faecalis GC 2267; GC2267, read-out: MINIMAL INHIBITORY CONCENTRATION MIC, pre-incubated in Mouse Serum): 2 mg/L (≈ 2.38 µM)
- MIC (E. faecalis GC 2267; GC2267, read-out: MINIMAL INHIBITORY CONCENTRATION MIC, pre-incubated in Water): 64 mg/L (≈ 76.2 µM)
- MIC (E. faecium GC 4556; GC4556, read-out: MINIMAL INHIBITORY CONCENTRATION MIC, pre-incubated in Mouse Serum): 2 mg/L (≈ 2.38 µM)
- MIC (E. faecium GC 4556; GC4556, read-out: MINIMAL INHIBITORY CONCENTRATION MIC, pre-incubated in Water): 64 mg/L (≈ 76.2 µM)
- MIC (E. faecium GC 2243; GC2243, read-out: MINIMAL INHIBITORY CONCENTRATION MIC, pre-incubated in Mouse Serum): 0.5 mg/L (≈ 0.595 µM)
- MIC (E. faecium GC 2243; GC2243, read-out: MINIMAL INHIBITORY CONCENTRATION MIC, pre-incubated in Water): 8 mg/L (≈ 9.52 µM)
- MIC (S. pneumoniae* GC 4465; [1]): 0.25 mg/L (≈ 0.298 µM)
- MIC (S. pneumoniae* GC 4465; [2]): 0.5 mg/L (≈ 0.595 µM)
- MIC (S. pneumoniae+ GC 4465; [1]): 4 mg/L (≈ 4.76 µM)
- MIC (S. pneumoniae+ GC 4465; [2]): 4 mg/L (≈ 4.76 µM)
- MIC (S. pyogenes GC 4563; GC4563, read-out: MINIMAL INHIBITORY CONCENTRATION MIC, pre-incubated in Mouse Serum): 0.25 mg/L (≈ 0.298 µM)
- MIC (S. pyogenes GC 4563; GC4563, read-out: MINIMAL INHIBITORY CONCENTRATION MIC, pre-incubated in Water): 0.12 mg/L (≈ 0.143 µM)
- MIC (c. albicans GC 3066; Candida albicans, GC3066, read-out: MINIMAL INHIBITORY CONCENTRATION MIC): > 64 mg/L
- MINIMAL INHIBITORY CONCENTRATION MIC (c. albicans GC 3066; pre-incubated in Water): >64 UG/ML
- ED50 (Staph. aureus Smith; Staphylococcus aureus, in Mus musculus, po, read-out: ED50 Staph Smith SOD): > 32 mg/kg
- ED50 (Staph. aureus Smith; iv, read-out: ED50 Staph Smith SIV): 0.77 mg/kg
